Reference: US8378117B2 (priority 2005, dated 2013)
Several values for one entry are separate records, joined by “and”; a condition that tells them apart may be missing. Equal entries are not always repeated. Where two headings read alike, the source gives them in different places.

Columns and labels:
CB1 receptor [1] = target: T1, CB1 receptor (Homo sapiens, UniProt P21554); experiment: cell-based
T1 construct: expressed in transfected cells
How it was run: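 Read-out is forskolin-driven CRE-β-gal reporter activity in stably transfected human-CB1 SK-N-MC cells, normalised to vehicle (100%); agonism lowers, inverse agonism raises signal. Values are EC50 (linear regression, multiple concentrations) or % change at one concentration.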

CB1 receptor [2] = target: T1, CB1 receptor; experiment: Binding assay for CB1 agonists or inverse agonists (SK-N-MC membranes, [3H]-CP-55,940); details: for IC50: Cannabinoid CB1 Receptor Binding IC50, calculated by linear regression from percent inhibition at various test concentrations; for inhibition at 0.2 µM: read-out: CB1 receptor binding percent inhibition, test concentration 0.2 μM (footnote 2); for CB1 receptor binding average percent inhibition: value shown is an average percent inhibition (footnote 5), concentration not given; for inhibition at 1 µM: read-out: CB1 receptor binding percent inhibition, test concentration 1 μM (footnote 1); for inhibition at 0.5 µM: read-out: CB1 receptor binding percent inhibition, test concentration 0.5 μM (footnote 10)
How it was run: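 Radioligand displacement: [3H]-CP-55,940 at […], 90 min at 30° C, pH 7.5 Tris buffer with 0.5 mg/mL fatty-acid-free BSA, using semi-purified membranes of human-CB1-transfected SK-N-MC cells. Bound counts collected on GF/C filters, 10 uM WIN 55,212 for non-specific; IC50 from percent inhibition over several concentrations.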

CB2 receptor = target: T2, CB2 receptor (Homo sapiens, UniProt P34972); experiment: Binding assay for CB2 agonists or inverse agonists (SK-N-MC membranes, [3H]-CP-55,940); details: for inhibition at 0.2 µM: read-out: CB2 receptor binding percent inhibition, test concentration 0.2 μM (footnote 2); for CB2 receptor binding percent inhibition: test concentration not stated
T2 construct: expressed in transfected cells
How it was run: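 IC50 came from percent-inhibition data over several compound concentrations, fitted by linear regression. Binding used semi-purified membranes of human CB2-transfected SK-N-MC cells, 90 min at 30 °C, pH 7.5 Tris-HCl with MgCl2, EDTA and BSA, then filtration and scintillation counting.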

[3] = CB1 Receptor Functional Inverse Agonist EC50, forskolin induced β-galactosidase activity, SK-N-MC cells
[4] = forskolin induced β-galactosidase activity, SK-N-MC cells, read-out: CB1 Receptor Functional Inverse Agonist EC50

T1 sequence (P21554 whole entry): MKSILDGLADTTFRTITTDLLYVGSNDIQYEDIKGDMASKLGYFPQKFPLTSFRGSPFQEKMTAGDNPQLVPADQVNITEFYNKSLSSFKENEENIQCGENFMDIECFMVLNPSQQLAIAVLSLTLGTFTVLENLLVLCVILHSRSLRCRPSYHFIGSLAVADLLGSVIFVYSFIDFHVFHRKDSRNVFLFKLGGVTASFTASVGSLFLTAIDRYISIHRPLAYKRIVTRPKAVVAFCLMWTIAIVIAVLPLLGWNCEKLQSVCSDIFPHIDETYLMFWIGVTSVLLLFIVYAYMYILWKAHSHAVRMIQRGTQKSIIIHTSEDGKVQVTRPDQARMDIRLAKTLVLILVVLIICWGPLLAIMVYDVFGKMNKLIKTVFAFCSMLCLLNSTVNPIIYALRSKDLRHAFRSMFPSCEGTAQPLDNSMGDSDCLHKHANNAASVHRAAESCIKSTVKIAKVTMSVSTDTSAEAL
T2 sequence (P34972 whole entry): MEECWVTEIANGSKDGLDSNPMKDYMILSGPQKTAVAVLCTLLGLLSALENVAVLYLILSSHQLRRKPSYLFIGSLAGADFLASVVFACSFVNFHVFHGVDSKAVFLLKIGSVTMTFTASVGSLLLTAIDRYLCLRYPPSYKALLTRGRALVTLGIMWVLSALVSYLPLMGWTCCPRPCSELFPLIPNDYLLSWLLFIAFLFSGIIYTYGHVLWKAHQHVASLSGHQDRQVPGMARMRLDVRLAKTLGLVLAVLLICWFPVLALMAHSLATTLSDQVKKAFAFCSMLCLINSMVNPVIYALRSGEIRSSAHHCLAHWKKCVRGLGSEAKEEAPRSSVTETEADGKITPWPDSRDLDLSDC

Row | Structure (SMILES) | EC50 (CB1 receptor [1]; [3]) [µM] | IC50 (CB1 receptor [2]) | inhibition at 0.2 µM (CB1 receptor [2]) [%] | inhibition at 0.2 µM (CB2 receptor) [%] | CB2 receptor binding percent inhibition (CB2 receptor) [%] | inhibition at 1 µM (CB1 receptor [2]) [%] | other results
1 | C[C@H](NC(=O)c1nn(-c2cc(Cl)ccc2Cl)c2c1CCCC/C2=C\c1ccc(Cl)cc1)C1CCCCC1 [Cpd 197, (8E)-8-(4-chloro-benzylidene)-1-(2,5-dichloro-phenyl)-1,4,5,6,7,8-hexahydro-cycloheptapyrazole-3-carboxylic acid [(1S)-1-cyclohexyl-ethyl]-amide] | 0.003 | 0.03 µM | 83 | 67 | – | – | –
2 | COC(=O)[C@@H](Cc1ccc(O)cc1)NC(=O)c1nn(-c2ccc(Cl)cc2Cl)c2c1CCCCC2Cc1ccc(F)cc1 (stereo partly drawn) [Cpd 81, (2R)-2-{[1-(2,4-dichloro-phenyl)-8-(4-fluoro-benzyl)-1,4,5,6,7,8-hexahydro-cycloheptapyrazole-3-carbonyl]-amino}-3-(4-hydroxy-phenyl)-propionic acid methyl ester] | – | – | – | – | 28 | – | EC50 (CB1 receptor [1]; [4]): 0.3 µM; CB1 receptor binding average percent inhibition (CB1 receptor [2]): ^(5)42%
3 | O=C(NS(=O)(=O)c1ccccc1)c1nn(-c2ccc(Cl)cc2Cl)c2c1CCCC/C2=C\c1ccc(Cl)cc1 [Cpd 136, (8E)-N-[8-(4-chloro-benzylidene)-1-(2,4-dichloro-phenyl)-1,4,5,6,7,8-hexahydro-cycloheptapyrazole-3-carbonyl]-benzenesulfonamide] | 0.03 | – | – | – | – | – | inhibition at 0.25 µM (CB1 receptor [2]; read-out: CB1 receptor binding percent inhibition, test concentration 0.25 μM (footnote 8)): 39%; inhibition at 0.25 µM (CB2 receptor; read-out: CB2 receptor binding percent inhibition, test concentration 0.25 μM (footnote 8)): 18%
4 | O=C(c1nn(-c2ccc(Cl)cc2Cl)c2c1CCCC/C2=C\c1ccc(F)cc1)N1CCCCC1c1ccccn1 (stereo not shown) [Cpd 206, (8E)-[1-(2,4-dichloro-phenyl)-8-(4-fluoro-benzylidene)-1,4,5,6,7,8-hexahydro-cycloheptapyrazol-3-yl]-(3,4,5,6-tetrahydro-2H-[2,2′]bipyridinyl-1-yl)-methanone] | 0.01 | 0.08 µM | 73 | 22 | – | – | –
5 | COC(=O)[C@@H](Cc1ccc(F)cc1)NC(=O)c1nn(-c2ccc(Cl)cc2Cl)c2c1CCCC[C@H]2Cc1cccc(F)c1 [Cpd 78, (2R)-2-{[(8S)-1-(2,4-dichloro-phenyl)-8-(3-fluoro-benzyl)-1,4,5,6,7,8-hexahydro-cycloheptapyrazole-3-carbonyl]-amino}-3-(4-fluoro-phenyl)-propionic acid methyl ester] | 0.2 | 0.4 µM | – | – | 23 | – | CB1 receptor binding average percent inhibition (CB1 receptor [2]): 59%
6 | COC(=O)[C@@H](Cc1ccc(F)cc1)NC(=O)c1nn(-c2ccc(Cl)cc2Cl)c2c1CCCC[C@@H]2Cc1cccc(F)c1 [Cpd 77, (2R)-2-{[(8R)-1-(2,4-dichloro-phenyl)-8-(3-fluoro-benzyl)-1,4,5,6,7,8-hexahydro-cycloheptapyrazole-3-carbonyl]-amino}-3-(4-fluoro-phenyl)-propionic acid methyl ester] | 0.1 | – | – | – | 28 | 44 | CB1 receptor binding percent inhibition (CB1 receptor [2]; test concentration not stated): 51%; CB1 receptor binding average percent inhibition (CB1 receptor [2]): 57%
7 | O=C(NN1CCCCC1)c1nn(-c2ccc(Cl)cc2Cl)c2c1CCCCC2Cc1cccc(Cl)c1 (stereo not shown) [Cpd 28, 8-(3-chloro-benzyl)-1-(2,4-dichloro-phenyl)-1,4,5,6,7,8-hexahydro-cycloheptapyrazole-3-carboxylic acid piperidin-1-ylamide] | 0.05 | 0.1 µM | – | – | 11 | 65 | –
8 | C[C@@H](NC(=O)c1nn(-c2ccc(Cl)cc2Cl)c2c1CCCC/C2=C\c1ccc(F)cc1)c1ccccn1 [Cpd 225, (8E)-1-(2,4-dichloro-phenyl)-8-(4-fluoro-benzylidene)-1,4,5,6,7,8-hexahydro-cycloheptapyrazole-3-carboxylic acid [(1R)-1-pyridin-2-yl-ethyl]-amide] | 0.001 | 0.005 µM and 0.006 µM and 0.007 µM | 90 | 6 | – | – | CB1 receptor binding percent inhibition (CB1 receptor [2]; test concentration 0.2 μM (footnote 2), 0.2 µM): 89%; CB1 receptor binding average percent inhibition (CB1 receptor [2]): 96%; inhibition at 1 µM (CB2 receptor; read-out: CB2 receptor binding percent inhibition, test concentration 1 μM (footnote 1)): 16%
9 | O=C(NC1CCC1)c1nn(-c2ccc(Cl)cc2Cl)c2c1CCCCC2Cc1ccc(Cl)cc1 (stereo not shown) [Cpd 25, 8-(4-chloro-benzyl)-1-(2,4-dichloro-phenyl)-1,4,5,6,7,8-hexahydro-cycloheptapyrazole-3-carboxylic acid cyclobutylamide] | – | – | – | – | 19 | 71 | EC50 (CB1 receptor [1]; [4]): 1.2 µM; inhibition at 0.5 µM (CB1 receptor [2]): 30%; CB1 receptor binding percent inhibition (CB1 receptor [2]; test concentration not stated): 51%
10 | O=C(N[C@@H](CO)c1ccccc1)c1n[nH]c2c1CCCCC2Cc1cccc(Cl)c1 (stereo partly drawn) [Cpd 165, 8-(3-chloro-benzyl)-1,4,5,6,7,8-hexahydro-cycloheptapyrazole-3-carboxylic acid [(1R)-2-hydroxy-1-phenyl-ethyl]-amide] | – | – | 79 | 98 | – | – | EC50 (CB1 receptor [1]; CB1 Receptor Functional Agonist EC50, SK-N-MC cells, forskolin induced β-galactosidase activity): 0.03 µM
11 | COC(=O)[C@@H](Cc1ccc(O)cc1)NC(=O)c1nn(-c2ccc(Cl)cc2Cl)c2c1CCCCC2Cc1cccc(Cl)c1 (stereo partly drawn) [Cpd 102, (2R)-2-{[8-(3-chloro-benzyl)-1-(2,4-dichloro-phenyl)-1,4,5,6,7,8-hexahydro-cycloheptapyrazole-3-carbonyl]-amino}-3-(4-hydroxy-phenyl)-propionic acid methyl ester] | 0.07 | 0.6 µM | – | – | 59 | 77 | inhibition at 0.5 µM (CB1 receptor [2]): 55%
12 | O=C(NCCc1ccccn1)c1nn(-c2ccc(Cl)cc2Cl)c2c1CCCC/C2=C\c1ccc(Cl)cc1 [Cpd 157, (8E)-8-(4-chloro-benzylidene)-1-(2,4-dichloro-phenyl)-1,4,5,6,7,8-hexahydro-cycloheptapyrazole-3-carboxylic acid (2-pyridin-2-yl-ethyl)-amide] | 0.04 | 0.1 µM | 68 | 5 | – | – | –
13 | C[C@@H](NC(=O)c1nn(-c2ccc(Cl)cc2Cl)c2c1CCCC/C2=C\c1ccc(F)cc1)c1ccccc1 [Cpd 146, (8E)-1-(2,4-dichloro-phenyl)-8-(4-fluoro-benzylidene)-1,4,5,6,7,8-hexahydro-cycloheptapyrazole-3-carboxylic acid [(1R)-1-phenyl-ethyl]-amide] | 0.02 | 0.008 µM and 0.01 µM | 93 | 10 | 3 | – | IC50 (CB2 receptor; Cannabinoid CB2 Receptor Binding IC50, calculated by linear regression from percent inhibition at various test concentrations): 2.3 µM
14 | O=S(=O)(/C=C/c1nn(-c2ccc(F)cc2F)c2c1CCCCC2Cc1ccc(F)cc1)NN1CCCCC1 (stereo not shown) [Cpd 122, (2E)-2-[1-(2,4-difluoro-phenyl)-8-(4-fluoro-benzyl)-1,4,5,6,7,8-hexahydro-cycloheptapyrazol-3-yl]-ethenesulfonic acid piperidin-1-ylamide] | 0.06 | – | – | – | 0 | 0 | –
15 | COc1ccc(/C=C2\CCCCc3c(C(=O)N[C@H](C)c4ccccc4)nn(-c4ccc(Cl)cc4Cl)c32)cc1 [Cpd 212, (8E)-1-(2,4-dichloro-phenyl)-8-(4-methoxy-benzylidene)-1,4,5,6,7,8-hexahydro-cycloheptapyrazole-3-carboxylic acid [(1R)-1-phenyl-ethyl]-amide] | 0.02 | 0.006 µM | 94 | 42 | – | – | –
